Entries after “also recorded” stand apart in the source; their conditions may differ.
Tests used:
[1] = system: monocyte/macrophages (CD11b^+Ly6C^−Ly6G^−) and CD4^+ T cells; experiment: Intracellular cytokines in splenocytes of treated mice after TLR agonist or PMA plus ionomycin stimulation; format: cell-based, mouse; details: vs vehicle
Method: For intracellular cytokines, whole splenocytes were stimulated with a) LPS (1 μg/mL) (Sigma), imiquimod, a toll like receptor 7 (TLR7) agonist, or ODN, a TLR9 agonist (both at 10 μg/mL) in 2% FBS RPMI 1640 for 24 hours in the presence of monensin (BioLegend) for the last 12 hours; or b) phorbol 12-myristate 13-acetate (PMA, 50 ng/ml) plus ionomycin (500 ng/ml) in the presence of monensin for 5 hours. Monensin was used to prevent cytokine secretion and optimize intracellular staining Intracellular expression of cytokines in CD4^+ cells and macrophages (CD11b^+Ly6C^−Ly6G^−) was analyzed by intracellular flow cytometry. Single-cell suspensions from spleen or kidneys were stained for extracellular markers for 20 min at 4° C. in PBS/1% FBS. Intracellular staining for Foxp3 and cytokines was performed using the Foxp3 Fixation/Permeabilization kit according to the manufacturer's protocol (eBioscience). Cells were acquired on a FACS LSR II (BD) and data was analyzed using Flowjo (Tree Star).

MS patients = details: compared to placebo; cited from earlier work
[2] = system: CD3/28-stimulated CD4^+CD25^− T cell proliferation; experiment: T cell suppression assay and function of MDSC sorted from spleens of treated mice; format: cell-based, mouse; details: data not shown
Method: Single cell suspensions of splenocytes or kidney cells were prepared using cell strainers (Fisher), followed by red blood cell lysis. Kidney lymphocytes were separated from connective tissue by centrifugation (15 minutes at 400g) in 30% Percoll (GE Healthcare). CD4^+CD25^− cells from spleen and kidney were isolated using the CD4^+CD25^+ regulatory T cell isolation kit according to manufacturer's protocol (Miltenyi). CD11b+ cells were isolated using EasySep mouse CD11b positive selection kit (StemCell Technologies), surface stained for Ly6C and Ly6G prior to sorting myeloid-derived suppressor cells (MDSC) using FACSAria II. Populations were >95% pure by FACS analysis. CD4^+CD25^− cells were labelled with 5 µM CFSE and stimulated with Dynabeads mouse T-cell activator CD3/CD28 (Invitrogen). Stimulated CD4^+CD25^− cells (4×10^4) were co-cultured with monocytic-MDSC(CD11b^+Ly6C^+Ly6G^−) or granulocytic-MDSC(CD11b^+Ly6C^+Ly6G^+) at a 1:1 ratio. Proliferation of CD4^+ cells was assayed after 4 days of incubation at 37° C., 5% CO2 by flow cytometry.

[3] = system: CD4+ regulatory T cells (CD4+ Foxp3+) in PBMC; experiment: CD4+ Tregs within PBMC of treated mice; format: in vivo, mouse; details: LAQ 1 or 25 mg/kg; compared to the other groups
From the text: FIG. 7 depicts an exemplary embodiment: A) illustrates gating technique used to identify CD4+ regulatory T cells (CD4+ Tregs), which are shown as the dotted cloud inside the box insert and also labeled as CD4+ Foxp3+.

For CCN(C(=O)c1c(O)c2c(Cl)cccc2n(C)c1=O)c1ccccc1 [LAQ, 5-chloro-N-ethyl-4-hydroxy-1-methyl-2-oxo-N-phenyl-1,2-dihydroquinoline-3-carboxamide], the “IL-10^+ M/M” value ([1]; splenic M/M after TLR agonist stimulation, PU^lo animals, 7 weeks of treatment) was “Significantly more”, the “M/M producing TNF-α” value ([1]; splenic M/M after TLR agonist stimulation, listed as laquinimod) was “unable to respond; also recorded: significantly fewer” and the “CD4^+ T cells producing IFN-γ” value ([1]; splenocytes, PMA plus ionomycin) was “significantly fewer”. The “New MRI lesions in the brains of patients with RRMS” value (MS patients) was “significant reduction”, the “Production of arginase and reactive oxygen species (MDSC)” value [2] was “not affected” and the “Percentage of CD4+ Tregs within PBMC” value [3] was “significantly higher percent”.

Reference: US20130345257A1, “COMPOSITION FOR LUPUS NEPHRITIS AND METHODS OF MAKING AND USING THE SAME” (The Regents of the University of California, priority 2012, published 2013)
